From patent US20120087914A1, “INHIBITION OF TRIM62 ACTIVITY REDUCES CANCER CELL PROLIFERATION” (Fred Hutchinson Cancer Research Center, priority 2008, published 2012)

How the values were obtained:
Type in all cases: cell-based, human
[1] = tested on: p27^Kip1 protein levels in UACC893 cells; test: p27^Kip1 Western blot in UACC893 cells with lapatinib and/or TRIM62 siRNA; conditions: UACC893 cells (amplified ErbB2), 0.5 μM lapatinib, siRNA from expression vector, FIG. 7
Description: A breast cancer cell line with an amplified ErbB2 gene (UACC893) was transfected with a TRIM62 siRNA expression vector or a vector that expressed a control siRNA. p27^Kip1 levels were assayed by Western blotting using a p27^Kip1 specific antibody. After treatment of the control-transfected cells with 0.5 μM lapatinib, p27^Kip1 levels increased as compared to the untreated cells. Cells transfected with the TRIM62 siRNA also had increased p27^Kip1 levels.
p27^Kip1 protein levels were measured in breast cancer cells with ErbB2 gene amplification after administration of an ErbB2 specific mall organic molecule, lapatinib. p27^Kip1 expression levels were higher after lapatinib was administered. […] The increased levels of p27^Kip1 expression coincided with increased nuclear localization of p27^Kip1. Data not shown.

[2] = tested on: p27^Kip1 protein levels in UACC893 cells transfected with a TRIM62 expression vector; test: p27^Kip1 Western blot in UACC893 cells overexpressing TRIM62, treated with lapatinib; conditions: UACC893 cells overexpressing TRIM62, 0.5 μM lapatinib, FIG. 8
Description: A breast cancer cell line with an amplified ErbB2 gene (UACC893) was transfected with a TRIM62 expression vector or an empty vector. p27^Kip1 levels were assayed by Western blotting using a p27^Kip1 specific antibody. Cells were treated with 0.5 μM lapatinib or buffer.
The effect of overexpression of TRIM62 protein on p27^Kip1 expression was determined in breast cancer cells with ErbB2 gene amplification. […] A breast cancer cell line with an amplified ErbB2 gene (UACC893) was transfected with a TRIM62 expression vector or an empty vector. p27^Kip1 levels were assayed by Western blotting using a p27^Kip1 specific antibody. Cells were treated with 0.5 μM lapatinib or buffer. As compared to an empty vector control, cells that overexpressed TRIM62 had low levels of p27^Kip1 protein expression.

BT474 cells = test: EdU incorporation by flow cytometry in BT474 cells; conditions: 25 nM siRNA, 12 hours EdU, Control siRNA 17.5%
Description: (§1) 4×10^5 MCF10A cells (immortalized, non-transformed epithelial cells derived from human fibrocystic mammary tissue; ATCC CRL-10217) or BT474 cells (Her2^+ human breast cancer cell line) were seeded in growth media (DMEM/F12 (Gibco), 5% horse serum (Invitrogen), […] (Peprotech), 1 mg/ml hydrocortisone (Sigma), […] cholera toxin (Sigma), […] (Sigma), and Pen/Strep (Invitrogen)). After 24 hours, media was changed to antibiotic-free growth medium, and lipofectamine 2000 was used to cotransfect MCF10A cells with either 15 nM Trim62SiRNA (SEQ ID NO: 9; 5′ AAGAAGCAGAGAAGCGCGC-3″ (Integrated DNA Technologies)) and 15 nM siGlow (non-targeting control siRNA labeled with Cy3 (Thermo Scientific)), or 15 nM Trim62scrambled siRNA (SEQ ID NO:10; 5′ GCGAGGACGGACAAA CAGA 3′ (Sigma)) and 15 nM siGlow; for BT474 cells 25 nM siRNA was used. 6 hours post transfection, media was replaced with growth media containing antibiotics, and 48 hours postransfection, MCF10A cell were incubated for 1.5 hours with […] (5-ethynyl-2′-deoxyuridine, an analog of BrdU); for BT474 cells incubation with EdU was for 12 hours. Cells were trypsinized, washed with PBS-1% FBS, and sorted for Cy3 transfection marker using a cell sorter (BD FACSArisII cell sorter). […] The data was collected using a BD FACS Diva software package and analyzed using BD CellQuest Pro Software. […]

MCA10F cells = test: Cell cycle distribution of exponentially growing MCA10F cells (FIG. 9); conditions: sorted on siGLO-FITC
Description: FIG. 9 provides an assessment of TRIM62siRNA on the cell cycle of MCA10F exponentially growing cells. The cells were sorted on siGLO-FITC.
as §1, with “hours.” for “hours. Cells were trypsinized, washed with PBS-1% FBS, and sorted for Cy3 transfection marker using a cell sorter (BD FACSArisII cell sorter).”

MCF10A cells = test: EdU incorporation by flow cytometry in MCF10A cells; conditions: 15 nM siRNA, 48 hours posttransfection, 1.5 hours EdU, control SiRNA 29.5%
Description: as §1

Compound	p27^Kip1 protein expression levels [1]	expression of p27^Kip1 protein [2]	EdU^+ cells (BT474 cells) [%]	percentage of cells that remain in G1 (MCA10F cells)	EdU^+ cells (MCF10A cells) [%]
CS(=O)(=O)CCNCc1ccc(-c2ccc3ncnc(Nc4ccc(OCc5cccc(F)c5)c(Cl)c4)c3c2)o1 [lapatinib]	higher	did not result in increased expression			
5′ AAGAAGCAGAGAAGCGCGC-3″ [T62siRNA]			9	higher percentage	11.1
